Laboratory results: ChEMBL document CHEMBL4052712, “Design and optimization of highly-selective, broad spectrum fungal CYP51 inhibitors” (Bioorg Med Chem Lett, 2017)

Key:
[1] = biological target: Lanosterol 14-alpha demethylase (Candida albicans (strain SC5314 / ATCC MYA-2876) (Yeast), UniProt P10613); assay: Inhibition of CYP51 in Candida albicans assessed as inhibition of microbe growth incubated for 48 hrs by CLSI M27-A3 guideline based method
Cytochrome P450 3A4 = Cytochrome P450 3A4 (Homo sapiens, UniProt P08684); assay: Inhibition of CYP3A4 in human hepatocyte microsomes using testosterone substrate by HPLC/MS/MS method; type: ADME
Sequence of Cytochrome P450 3A4 (P08684 whole entry): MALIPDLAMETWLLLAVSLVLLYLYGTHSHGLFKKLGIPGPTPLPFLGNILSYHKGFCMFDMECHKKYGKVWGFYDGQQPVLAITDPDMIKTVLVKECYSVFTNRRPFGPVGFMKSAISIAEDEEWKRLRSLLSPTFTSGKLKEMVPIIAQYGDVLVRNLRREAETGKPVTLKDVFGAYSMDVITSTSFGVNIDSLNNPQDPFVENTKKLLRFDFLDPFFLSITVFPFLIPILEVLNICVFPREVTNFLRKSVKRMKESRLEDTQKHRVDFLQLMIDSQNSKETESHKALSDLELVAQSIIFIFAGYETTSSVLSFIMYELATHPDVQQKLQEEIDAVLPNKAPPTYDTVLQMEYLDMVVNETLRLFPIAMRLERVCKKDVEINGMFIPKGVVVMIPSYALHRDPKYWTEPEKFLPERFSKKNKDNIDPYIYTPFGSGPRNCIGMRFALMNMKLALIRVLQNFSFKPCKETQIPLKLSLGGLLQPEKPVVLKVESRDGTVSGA

Aromatase = biological target: T1, Aromatase (Homo sapiens, UniProt P11511); assay: Inhibition of CYP19 in human hepatocyte microsomes using testosterone substrate by HPLC/MS/MS method; type: ADME
T1 sequence (P11511 whole entry): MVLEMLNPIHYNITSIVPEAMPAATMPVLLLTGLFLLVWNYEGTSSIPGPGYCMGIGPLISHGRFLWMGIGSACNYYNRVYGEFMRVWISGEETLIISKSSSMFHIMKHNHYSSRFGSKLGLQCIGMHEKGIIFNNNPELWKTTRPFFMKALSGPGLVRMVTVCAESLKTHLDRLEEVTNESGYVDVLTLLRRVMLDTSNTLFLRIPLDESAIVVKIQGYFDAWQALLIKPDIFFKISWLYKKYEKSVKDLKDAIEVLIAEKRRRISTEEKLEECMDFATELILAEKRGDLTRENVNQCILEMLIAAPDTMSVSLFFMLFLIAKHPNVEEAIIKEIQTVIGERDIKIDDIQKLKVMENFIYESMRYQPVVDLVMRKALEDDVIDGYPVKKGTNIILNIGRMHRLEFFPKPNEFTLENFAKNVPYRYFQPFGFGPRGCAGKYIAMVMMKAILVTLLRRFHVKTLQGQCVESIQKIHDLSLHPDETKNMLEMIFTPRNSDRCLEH

[2] = biological target: T2, Lanosterol 14-alpha demethylase (Aspergillus, UniProt B8NUK6+G4WW85+Q9P8R0); assay: Binding affinity to Aspergillus fumigatus CYP51
T2 sequence (B8NUK6 whole entry): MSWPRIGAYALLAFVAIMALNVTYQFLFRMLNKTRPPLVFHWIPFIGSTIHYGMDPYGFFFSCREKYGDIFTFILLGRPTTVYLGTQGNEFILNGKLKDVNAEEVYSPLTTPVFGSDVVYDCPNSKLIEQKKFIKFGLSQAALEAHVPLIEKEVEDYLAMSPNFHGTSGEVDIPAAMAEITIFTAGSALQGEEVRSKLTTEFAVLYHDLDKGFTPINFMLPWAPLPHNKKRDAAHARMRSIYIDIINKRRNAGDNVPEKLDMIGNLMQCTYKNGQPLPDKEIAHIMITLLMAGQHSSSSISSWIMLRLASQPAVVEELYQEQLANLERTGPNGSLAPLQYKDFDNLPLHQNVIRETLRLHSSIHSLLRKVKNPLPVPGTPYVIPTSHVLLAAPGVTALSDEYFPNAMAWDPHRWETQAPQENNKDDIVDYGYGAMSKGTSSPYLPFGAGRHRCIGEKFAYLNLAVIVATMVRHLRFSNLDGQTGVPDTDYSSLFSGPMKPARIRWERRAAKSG
T2 sequence (Q9P8R0 whole entry): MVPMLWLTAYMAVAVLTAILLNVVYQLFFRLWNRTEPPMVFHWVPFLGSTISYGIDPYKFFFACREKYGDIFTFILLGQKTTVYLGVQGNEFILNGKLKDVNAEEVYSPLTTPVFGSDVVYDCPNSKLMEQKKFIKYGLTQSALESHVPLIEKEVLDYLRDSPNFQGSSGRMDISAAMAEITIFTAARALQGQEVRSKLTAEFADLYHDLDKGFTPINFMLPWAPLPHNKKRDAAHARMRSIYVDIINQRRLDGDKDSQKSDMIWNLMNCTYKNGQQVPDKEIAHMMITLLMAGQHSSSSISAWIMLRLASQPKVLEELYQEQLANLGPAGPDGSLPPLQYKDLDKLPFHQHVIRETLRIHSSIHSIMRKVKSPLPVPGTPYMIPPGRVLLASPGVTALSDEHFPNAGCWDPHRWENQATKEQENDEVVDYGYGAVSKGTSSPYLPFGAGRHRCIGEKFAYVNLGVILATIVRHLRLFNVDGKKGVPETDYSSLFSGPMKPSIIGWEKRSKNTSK
T2 sequence (G4WW85 whole entry): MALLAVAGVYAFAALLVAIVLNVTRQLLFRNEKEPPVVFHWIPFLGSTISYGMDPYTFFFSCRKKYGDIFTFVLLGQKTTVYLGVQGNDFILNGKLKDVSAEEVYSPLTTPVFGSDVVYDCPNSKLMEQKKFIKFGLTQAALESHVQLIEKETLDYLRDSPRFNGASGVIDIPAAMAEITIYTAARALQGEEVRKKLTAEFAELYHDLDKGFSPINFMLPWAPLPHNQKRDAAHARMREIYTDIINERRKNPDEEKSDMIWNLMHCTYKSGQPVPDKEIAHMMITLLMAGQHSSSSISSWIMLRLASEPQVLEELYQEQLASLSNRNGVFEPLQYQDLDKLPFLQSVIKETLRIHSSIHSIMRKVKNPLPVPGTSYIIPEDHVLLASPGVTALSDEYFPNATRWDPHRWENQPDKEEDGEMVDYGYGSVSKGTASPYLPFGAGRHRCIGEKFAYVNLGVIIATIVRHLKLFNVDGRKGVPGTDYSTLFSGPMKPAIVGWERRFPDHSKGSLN

[3] = Tmax in Swiss albino mouse at 5 mg/kg, po measured during 0.5 to 48 hrs post dose by HPLC/MS/MS method; type: ADME, organism-based; conditions: in vivo
[4] = AUClast in Swiss albino mouse at 5 mg/kg, po measured during 0.5 to 48 hrs post dose by HPLC/MS/MS method; type: ADME, organism-based; set-up: dose 5 mg/kg, route oral, time 0 - last; conditions: in vivo
[5] = Half life in Swiss albino mouse plasma at 5 mg/kg, po measured during 0.5 to 48 hrs post dose by HPLC/MS/MS method; type: ADME, organism-based
Kidney [6] = assay: Drug level in Swiss albino mouse kidney at 5 mg/kg, po after 48 hrs assessed as relative Cmax level relative to plasma drug level by HPLC/MS/MS method; type: ADME, organism-based; conditions: other tissue
Kidney [7] = assay: Drug level in Swiss albino mouse kidney at 5 mg/kg, po after 48 hrs assessed as relative AUC (48 hrs) level relative to plasma drug level by HPLC/MS/MS method; type: ADME, organism-based; conditions: other tissue

Sequence of Lanosterol 14-alpha demethylase (Candida albicans (strain SC5314 / ATCC MYA-2876) (Yeast), UniProt P10613) (P10613 whole entry): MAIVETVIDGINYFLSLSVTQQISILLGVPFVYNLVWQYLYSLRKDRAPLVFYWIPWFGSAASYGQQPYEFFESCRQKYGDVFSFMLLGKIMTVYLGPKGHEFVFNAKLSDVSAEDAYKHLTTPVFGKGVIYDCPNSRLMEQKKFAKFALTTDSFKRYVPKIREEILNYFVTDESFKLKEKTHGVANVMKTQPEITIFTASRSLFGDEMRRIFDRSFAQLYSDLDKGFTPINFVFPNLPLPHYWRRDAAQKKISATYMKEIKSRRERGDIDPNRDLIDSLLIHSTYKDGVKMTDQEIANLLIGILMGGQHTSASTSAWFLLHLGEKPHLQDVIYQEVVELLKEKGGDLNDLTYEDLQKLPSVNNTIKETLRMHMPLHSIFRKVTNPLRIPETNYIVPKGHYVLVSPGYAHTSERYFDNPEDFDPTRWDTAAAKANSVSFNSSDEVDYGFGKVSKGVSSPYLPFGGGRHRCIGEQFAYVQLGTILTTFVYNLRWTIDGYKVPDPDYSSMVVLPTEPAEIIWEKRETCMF

- MIC50 [1]: 7.8 ng/mL
- IC50 (Cytochrome P450 3A4): > 200 µM
- IC50 (Aromatase): > 100 µM
- Kd [2]: 13 nM
- Tmax [3]: 4 h
- AUC(0-t) [4]: 67000 ng·h/mL
- half-life [5]: 1440 min
- Drug uptake (Kidney [6]): 270%
- Drug uptake (Kidney [7]): 268%
SMILES: N#Cc1ccc(COc2ccc(C#Cc3ccc(C(F)(F)C(O)(Cn4cnnn4)c4ccc(F)cc4F)nc3)cc2)cc1 (single isomer, unassigned; (+))
